Tests used:
CD4^+CD25^− T cells = test: Enteroantigen specific CD4+CD25- proliferation assay with cells from treated mice; assay type: in vivo, mouse; settings: Balb/c mice
Experimental: Extracts were prepared by removing the colon and cecum from mice and placing the content in PBS. This was sonicated 3 times for 30 seconds on ice, followed by centrifugation at 10,000 g for 10 min to remove insoluble material. The supernatant was collected, sterile filtered, and stored at −60° C. The protein concentration in the supernatants was typically 1 to 1.5 mg/mL as determined by the bicinchoninic acid (BCA) method.
Female wild-type Balb/c, 7 to 9 weeks of age, were injected with either 60 μg or 300 μg of B7-H4-Ig, intraperitoneally (IP), 3 times a week for 2 weeks. There were 5 mice in each group. B7-H4-Ig treated mice and also naïve control mice were euthanized for T cell isolation after 2 week treatment.
The CD4^+CD25^− T cells were obtained as follows: CD4^+ T cells were positively selected from spleen single-cell suspensions using a mouse anti-CD4 monoclonal antibody-coated DYNABEAD® and the DETACHABEAD® system (Dynal AS, Oslo, Norway) according to the manufacturer's instructions. Then the CD4^+ T cells ([…] assessed by flow cytometry) were separated into CD25^+ and CD25^− T cell populations by Miltenyi's magnetic bead technology (MACS®, Miltenyi Biotech, Belgisch Gladbach, Germany) using PE-labeled anti-CD25 monoclonal antibody, followed by the addition of anti-PE microbeads and depletion according to the manufacturer's instructions. […]

Human T cells = test: Quantitative RT-PCR of human T cells under Th17 differentiation cocktail; assay type: cell-based; settings: 1 μg/mL, vs Synagis (FIG. 55)
Experimental: Human T cells were activated by anti-CD3 and anti-CD28 bound beads in the presence of Th17 differntiation cocktail (TGF-β1 (10 ng/mL), IL-6 (50 ng/mL), IL-23 (4 ng/mL), anti-IL-4 (10 μg/mL), anti-IFN-γ (5 μg/mL) and anti-IL-2 (5 μg/mL)). Cells were incubated with two different variants of B7-H4-Ig (1 μg/mL) identified as Q or L, or a humanized monoclonal IgG antibody directed against an epitope in the A antigenic site of the F protein of the Respiratory Syncytial Virus (Synagis), as an isotype control.

CTLA4 KD/NOD mice = test: Autoimmune diabetes in CTLA4 KD/NOD mice; assay type: in vivo, mouse; settings: 15 mg/kg i.p. 3 times per week for 4 weeks from age 2 weeks; mice 24 weeks old (22 weeks post treatment) (FIG. 49)
Experimental: Both female and male CTLA4 KD/NOD mice (Chen et al., PNAS, 103(44):16400-16405 (2006)) at age of 2 weeks were randomly assigned into experimental groups: vehicle (11 mice), and B7-H4-Ig (12 mice). Mice were treated with B7-H4-Ig 3 times per week for 4 weeks (15 mg/kg, per i.p. injection), and monitored 3 times per week for glucose content in the urine first with Diastix. […] Diabetes was determined when blood glucose reached ≧600 mg/dL.

[1] = test system: CD4^+CD62L^+ naïve T cells; test: Mouse Th17 assay, IL-17A ELISA; assay type: cell-based; settings: 20, 10, 5, 2.5, and 1.25 μg/mL (FIGS. 57, 58)
Experimental: CD4^+CD62L^+ naïve T cells were isolated from BALB/c mice as in the above examples, and activated by anti-CD3 and anti-CD28 bound beads in the presence of Th17 differntiation cocktail (TGF-β1 (10 ng/mL), IL-6 (50 ng/mL), IL-23 (4 ng/mL), anti-IL-4 (10 μg/mL), anti-IFN-γ (5 μg/mL) and anti-IL-2 (5 μg/mL)). Murine B7-H4-Ig (10 μg/mL) or retinoic acid (RA) (10 μM) was added to the cultures on day 0, day 1, or day 2 of the 4 day culture. IL-17A levels were measured by ELISA at the end of the 4 day culture.
The Th17 assay is 4 days in duration. In order to determine when B7-H4-Ig is acting, the Th17 assay was performed with the addition of 10 μg/mL of murine B7-H4-Ig, 10 μg/mL of mouse IgG control, or […] retinoic acid on Day 0, Day 1, or Day 2.
Peripheral T cells were obtained from spleens and inguinal lymph nodes of 6-9 week old BALB/c mice by mechanical disruption through a cell strainer followed by red blood cell (RBC) lysis.
Naïve helper T cells (CD4^+CD62L^+) were obtained using the Miltenyi Biotec microbead system. CD4^+ cells are enriched by negative selection, and followed by a positive selection of CD62L^+. In some experiments CD25+ cells were also depleted.
After selection, cells are activated in vitro with anti-CD3/CD28 beads at a 1:1 cell:bead ratio in the presence of the TH17 differentiation cocktail (TGF-β1 (10 ng/ml), IL-6 (50 ng/ml), IL-23 (4 ng/ml), anti-IL-2 (5 μg/ml), anti-IL-4 (10 μg/ml), and anti-IFN-γ (5 μg/ml)). Murine B7-H4-Ig is added at a final concentration of 1.25-20 μg/ml. Retinoic acid (RA) is used as positive control and mouse IgG is used as a negative control.
After 4 days of culture, cultures are spun down and supernatants are harvested and stored at <−65° C. until analyzed for IL-17A levels by ELISA.

With “B7-H4-Ig: B7-H4 extracellular domain fused to Ig Fc; bare label is the human protein in Example 3, murine protein in Examples 1, 2, 5, 7-11” the “enteroantigen specific CD4+CD25− T effector cell response” value (CD4^+CD25^− T cells; 60 μg or 300 μg IP 3 times a week for 2 weeks (FIG. 52)) was “barely affected”, the “Tregs from treated mice: blocking of enteroantigen priming and T cell proliferation” value (CD4^+CD25^− T cells; 60 μg or 300 μg IP 3 times a week for 2 weeks, vs Tregs from control mice (FIG. 51)) was “more potent in blocking enteroantigen priming and T cell proliferation” and the “expression of mRNA involved in Th17 cell differentiation (RORc, IL-17A, IL-17F, IL-21, IL-22)” value (Human T cells) was “downregulates the expression of mRNA involved in Th17 cell differentiation”. The “diabetes development (blood glucose ≧600 mg/dL)” value (CTLA4 KD/NOD mice) was “did not develop diabetes”.
For “Human B7-H4-Ig: human B7-H4 extracellular domain fused to hinge, CH2 and CH3 regions of human immunoglobulin Cγ1 chain; representative SEQ ID NOs:114-137”, the “activity on mouse cells in the Th17 assay (IL-17A)” value [1] was “active”.
